We go through one sequence from US20230190866A1, “PEPTIDE FOR THE TREATMENT OF CYTOKINE STORM SYNDROME” (priority 2020, published 2023).

Ends that are not written are not given here.

Data set [1] deals with acute respiratory distress syndrome in patients with Covid-19. To be noted: ten treated Covid-19 patients.
For data set [2] the following is noted: patients, pharmaceutical composition. From the text: The peptide identified as SEQ ID NO: 1 is obtained by chemical synthesis. Through experiments such as those described in the present invention, those immunological mechanisms induced by the peptide that contribute in the control of hyperinflammation can be evaluated.

Regarding “SIDLKDKYKNIGAKLVQLVANNTNEEA [peptide identified as SEQ ID NO: 1]”, in data set [1], the symptoms of immunosuppression entry is “did not present any symptoms of immunosuppression”. In data set [2], the serious adverse events entry was “No serious adverse events were identified” and the tolerability entry is reported as “well tolerated”.
